Values of other authors as cited in patent US10359349B2, “Use of focused light scattering techniques in biological applications” (AIDIA INVESTMENT GROUP, INC., priority 2008, dated 2019).

Tested on: platelets
Conditions: platelet inhibition in arterial thrombophilic diseases; share of drug-treated patients whose platelets are not inhibited

Row | Structure (SMILES) | treated patients who do not respond to treatment
1 | CC(=O)Oc1ccccc1C(=O)O [ASA, Aspirin] | Approximately 25%
2 | COC(=O)[C@H](c1ccccc1Cl)N1CCc2sccc2C1 [Plavix, clopidogrel bisulfate] | ~29%
